We go through one molecule from patent US12714576B2, “System and method for treatment of bone” (SHANKAR RAJESWARAN M.D. LLC, priority 2020, dated 2026).

This data set deals with unicameral bone cyst (UBC). As to the kind of experiment: Retrospective evaluation of pediatric patients with UBC treated by doxycycline chemical curettage (sclerotherapy) and injection of synthetic bone graft. The data set is classed as in vivo. As for the experimental part: Summary. Retrospective evaluation of twelve pediatric patients, ages 5-14 years, undergoing treatment for a UBC, at a single institution. All UBCs were treated in a single, minimally invasive, image guided procedure using percutaneous needle access into the UBC followed by chemical curettage (a form of sclerotherapy) and injection of regenerative synthetic graft. Patients were followed clinically, and with serial radiographs, to evaluate for healing and complications. Mean time to return to full activity was 2.2 months post procedure, with a mean clinical follow-up time of 9.2 months.
Methods. Fifteen patients were initially enrolled in this IRB approved study from August 2018 through May 2020. The diagnosis of UBC was made via radiographs and/or magnetic resonance imaging (MRI).
Combination sclerotherapy and graft injection with CaSO4—CaPO4 was performed in a single setting as an outpatient procedure with an average procedure time of 45 minutes (range 30-60 minutes). Mean volume of doxycycline instilled during cyst sclerotherapy was 52 mL (20 mg/ml and a range 20-100 mL). Mean volume of CaSO4—CaPO4 synthetic graft material administered was 28 mL (range 4-90 mL).
Patients were followed clinically for a minimum of three months post procedure, with radiographs performed at follow-up visits. One patient was excluded as they had imaging consistent with a fractured UBC that had subsequently rehealed into multiple cysts, and 2 other patients were excluded secondary to follow up of less than 3 months.
Assessment of treatment response was evaluated using the Modified Neer Classification of Radiographic Healing, as shown above in Table 1. All radiographs were evaluated by four attending pediatric radiologists.
Procedure Technique. All procedures were performed under general anesthesia. For each procedure, the cyst was localized under fluoroscopy, and the upper and lower margins of the cyst were marked on the skin. Ultrasound mapping of the area of concern was performed to identify critical structures such as arteries or nerves. However, the cyst itself could often be visualized sonographically due to associated cortical thinning.
A 5 mm incision was made at each cyst margin as marked on the skin, and an 11-gauge or 14-gauge “treatment” needle was advanced into the cyst percutaneously. Choice of needle gauge was determined by cyst size and the expected amount of synthetic graft to be administered, with 11-gauge needles used in larger cysts. A second 5 mm incision was made along the remaining marked margin of the lesion, and a 14-gauge or 16-gauge “venting” needle was placed.
Next, Omnipaque-180 (GE Healthcare), a water-soluble iodinated contrast, was diluted with sterile saline in a 1:1 ratio and was injected via the treatment needle during fluoroscopic visualization, taking care to ensure fluid egress via the venting needle. Contrast injection was performed to confirm a cystic nature of the UBC, to ensure adequate diffusion of the injected contrast throughout the cystic cavity, as well as to assess the presence of unexpected significant vascular outflow. Occasionally, an incomplete septation within the cyst was encountered, likely secondary healing change related to a prior pathologic fracture or prior treatment.
Doxycycline (20 mg/mL), in a volume to match the cyst volume, was injected through the treatment needle and aspirated through the venting needle in a push-pull fashion, irrigating the cyst for one minute. The doxycycline was allowed to dwell for another nine minutes. A second round of sclerosant irrigation was then performed using similar technique and fresh doxycycline solution; thus, the total duration of doxycycline sclerotherapy was 20 minutes.
Utilizing the cyst volume determined during initial contrast injection, a similar volume of synthetic bone graft material was prepared and injected through the treatment needle during live fluoroscopy. […]

Values joined by “and” are separate entries in the source; they are usually repeats but may differ in a detail not shown here. Equal values may be shown once.

For the molecule `C[C@H]1c2cccc(O)c2C(=O)C2=C(O)[C@]3(O)C(=O)C(C(N)=O)=C(O)[C@@H](N(C)C)[C@@H]3[C@@H](O)[C@@H]21` [doxycycline], the “Patients with healing of the UBC (Modified Neer class 1)” value (10 of 12 patients, most recent follow-up radiographs) is 83%. Under “11 of 12 patients, most recent follow-up”, the “Patients showing healed cysts (Modified Neer classes 1 or 2)” value was determined as 91.7%. Further, for the setting “12 patients”, the “Adverse events related to the procedures” value is on record as “no adverse events related to the procedures” and the Perioperative complications result is “No perioperative complications were observed”. The “Return to Activities (mo)” value (one line per patient (patients 1-12), doxycycline 20 mg/mL sclerotherapy followed by CaSO4-CaPO4 synthetic graft (PRO-DENSE)) was 1.0 mo and 0.8 mo and 1.9 mo and 2.1 mo and 1.3 mo and 1.6 mo (2×) and 1.2 mo and 3.1 mo and 4.8 mo and 2.8 mo and 3.7 mo. Moreover, under “one of 12 patients, most recent follow-up radiographs”, the “Patients with healing with a small defect (Modified Neer class 2)” value was determined as 8%.
